One experiment concerns the target GdauOBP1 (Galeruca daurica, UniProt A0A1U9W4Y5). Put plainly: Fluorescence competitive binding assay (1-NPN reporter), recombinant GdauOBP1. Conditions: for pKi: Ki = IC50/(1 + [1-NPN]/K1-NPN). As to the method: (§1) Fluorescence-binding assays were performed using a 970CRT spectrofluorophotometer (Hitachi, Japan). Instrument parameters were set as follows: Excitation slit of 10 nm, emission slit of 10 nm, sensitivity of 2 s, excitation wavelength of 337 nm, and scanning emission wavelength range of 350–700 nm. In order to measure the affinity of the fluorescent ligand 1-NPN (N-phenyl-1-naphthylamine) with the six recombinant proteins, the recombinant proteins were diluted to 2 μM in 50 mM Tris–HCl (pH 7.4) and added into a 1-cm light path quartz cuvette. Fluorescence values were recorded after the 1-NPN solution was added successively. The dissociation constant K1–NPN was calculated using GraphPad Prism 7.0 software.
(§2) Thirteen main volatiles of the host plant (A. mongolicum) were selected as competing ligands for the fluorescence competitive binding assays (Table 1). All ligands were purchased from Sigma-Aldrich (St. Louis, MO, United States). These ligands were dissolved in methanol (HPLC grade) to make stock solutions of 1 mM, which were added into a 2-μM protein solution with 1-NPN saturated. […] Three duplications were used in the binding experiment. The curves were fitted using Scatchard plots. The dissociation constants (Ki) of the competitive ligands were calculated based on the equation: Ki = IC50/(1 + [1−NPN]/K1−NPN), where IC50 is the concentration of a competitor that results in a 50% reduction of the initial fluorescence intensity, and [1-NPN] and K1–NPN are the free concentration of 1-NPN and the dissociation constant of the recombinant protein/1-NPN complex, respectively ([Campanacci et al., 2001]).

Another experiment concerns the target GdauOBP6 (Galeruca daurica, UniProt A0A1U9W4Z8). Kind of experiment: Fluorescence competitive binding assay (1-NPN reporter), recombinant GdauOBP6. As to conditions: for pKi: Ki = IC50/(1 + [1-NPN]/K1-NPN). Here is the method:
as §1, §2

A further experiment addresses GdauOBP10 (Galeruca daurica, UniProt A0A1U9W4Z5). Put plainly: Fluorescence competitive binding assay (1-NPN reporter), recombinant GdauOBP10. As to conditions: for pKi: Ki = IC50/(1 + [1-NPN]/K1-NPN). As to the method: as §1, §2
The next experiment concerns the target GdauOBP15 (Galeruca daurica, UniProt A0A1U9W4Z9). Kind of experiment: Fluorescence competitive binding assay (1-NPN reporter), recombinant GdauOBP15. Conditions: for pKi: Ki = IC50/(1 + [1-NPN]/K1-NPN). As to the method: as §1, §2
For a further experiment, the target named is GdauCSP4 (Galeruca daurica, UniProt A0A1W6GWH1). Put plainly: Fluorescence competitive binding assay (1-NPN reporter), recombinant GdauCSP4. As to conditions: for pKi: Ki = IC50/(1 + [1-NPN]/K1-NPN). As to the method: as §1, §2
Sequence of GdauCSP4 (A0A1W6GWH1 entry or part of it): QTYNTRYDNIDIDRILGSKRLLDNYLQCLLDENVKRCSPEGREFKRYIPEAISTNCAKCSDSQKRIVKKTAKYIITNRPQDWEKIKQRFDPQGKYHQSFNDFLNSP
For another experiment, the target named is GdauCSP5 (Galeruca daurica, UniProt A0A1W6GWH8). Kind of experiment: Fluorescence competitive binding assay (1-NPN reporter), recombinant GdauCSP5. Conditions: for pKi: Ki = IC50/(1 + [1-NPN]/K1-NPN). As to the method:
as §1, §2

In experiment [1] the test system is G. daurica antennae. Kind of experiment: Electroantennogram (EAG) of dsRNA-CSP5-injected adults to host plant volatiles. Set-up: species or system Galeruca daurica. As to conditions: dsRNA-CSP5-injected females vs dsRNA-GFP control; 10 μL of 1 mol/L odorant. As to the method: (§3) Two microliters of dsRNA (1,000 μg/μL) was injected into the intersegmental membrane between the fourth and fifth abdominal segments of 3-day-old adult females and males using a microinjector (Shimadzu, Japan). All the treated insects, including dsRNA-OBP15-injected, dsRNA-CSP5-injected, and dsRNA-GFP-injected, were reared under natural temperature conditions in the lab. Samples were taken 48 h later for interference efficiency measurement and electroantennogram analysis.
Electroantennograms were conducted to record the antennal responses of dsRNA-OBP15-injected, dsRNA-CSP5-injected, and dsRNA-GFP-injected to 12 plant volatiles. These odorants were dissolved in dichloromethane (HPLC grade) to make stock solutions of 1 mol/L, and dichloromethane alone served as solvent control. The antennae were cut off at the base, and the ends were removed then attached to the electrode with electrode gel. Filter paper strips (1 cm × 0.5 cm) were loaded with 10 μL of each chemical solution and then inserted into a Pasteur pipette. The tube was connected to an air stimulus controller (CS-55; SynTech). The signals were detected by a high-impedance amplifier (IDAC-2; SynTech) and analyzed using SynTech software (GC-EAD 2014 v1.2.5). The pulse duration time was 0.2 s with a stimulation interval of 30 s, and each compound was tested three times for each antenna. It was taken as the absolute value of the difference value between the maximum amplitude achieved by the odor stimulus and the baseline level. Each antenna was stimulated three times. All EAG results are presented as the mean EAG values from six female or male antennae.
The binding assay curve was fitted by GraphPad Prism 7.0, using the least squares (ordinary) fit of the second-order polynomial. Data from qPCR and EAG assays were analyzed using SPSS Statistics 17.0. T-test (P < 0.05) was used to analyze the differences among the groups.

In experiment [2] the test system is G. daurica antennae. Put plainly: Electroantennogram (EAG) of dsRNA-OBP15-injected adults to host plant volatiles. Set-up: species or system Galeruca daurica. Conditions: dsRNA-OBP15-injected females vs dsRNA-GFP control; 10 μL of 1 mol/L odorant. As to the method:
as §3
Electroantennograms were conducted to record the antennal responses of dsRNA-OBP15-injected, dsRNA-CSP5-injected, and dsRNA-GFP-injected to 12 plant volatiles. These odorants were dissolved in dichloromethane (HPLC grade) to make stock solutions of 1 mol/L, and dichloromethane alone served as solvent control. The antennae were cut off at the base, and the ends were removed then attached to the electrode with electrode gel. Filter paper strips (1 cm × 0.5 cm) were loaded with 10 μL of each chemical solution and then inserted into a Pasteur pipette. […] The signals were detected by a high-impedance amplifier (IDAC-2; SynTech) and analyzed using SynTech software (GC-EAD 2014 v1.2.5). […]
The binding assay curve was fitted by GraphPad Prism 7.0, using the least squares (ordinary) fit of the second-order polynomial. Data from qPCR and EAG assays were analyzed using SPSS Statistics 17.0. […]

[3] abbreviates: GdauOBP6, 2 μM protein, 1-NPN saturated, 50 mM Tris–HCl pH 7.4, read-out: IC50.
Setting [4] is: GdauOBP10, 2 μM protein, 1-NPN saturated, 50 mM Tris–HCl pH 7.4, read-out: IC50.
Setting [5] is: GdauOBP15, 2 μM protein, 1-NPN saturated, 50 mM Tris–HCl pH 7.4, read-out: IC50.
Where [6] appears, read: GdauCSP4, 2 μM protein, 1-NPN saturated, 50 mM Tris–HCl pH 7.4, read-out: IC50.
[7] abbreviates: GdauCSP5, 2 μM protein, 1-NPN saturated, 50 mM Tris–HCl pH 7.4, read-out: IC50.
Where [8] appears, read: GdauOBP1, 2 μM protein, 1-NPN saturated, 50 mM Tris–HCl pH 7.4, read-out: IC50.

pIC50, pKd, pKi: −log10 of the molar value. Where two headings read alike, the source gives them in different places.

Sequence of GdauOBP6 (A0A1U9W4Z8 entry or part of it): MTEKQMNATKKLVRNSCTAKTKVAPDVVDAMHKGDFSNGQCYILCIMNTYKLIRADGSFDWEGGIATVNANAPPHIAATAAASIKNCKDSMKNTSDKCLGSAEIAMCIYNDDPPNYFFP
Sequence of GdauOBP15 (A0A1U9W4Z9 entry or part of it): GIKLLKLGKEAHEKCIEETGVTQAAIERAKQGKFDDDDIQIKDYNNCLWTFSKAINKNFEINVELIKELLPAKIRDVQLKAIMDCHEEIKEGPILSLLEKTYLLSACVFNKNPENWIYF
Sequence of GdauOBP1 (A0A1U9W4Y5 entry or part of it): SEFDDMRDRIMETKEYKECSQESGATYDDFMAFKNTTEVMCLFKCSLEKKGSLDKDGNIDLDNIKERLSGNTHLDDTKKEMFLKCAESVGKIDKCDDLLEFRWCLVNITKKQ
Sequence of GdauOBP10 (A0A1U9W4Z5 entry or part of it): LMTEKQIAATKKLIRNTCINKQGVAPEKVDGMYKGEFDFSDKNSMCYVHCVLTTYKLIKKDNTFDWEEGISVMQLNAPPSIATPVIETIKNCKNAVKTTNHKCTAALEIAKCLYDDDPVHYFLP
Sequence of GdauCSP5 (A0A1W6GWH8 entry or part of it): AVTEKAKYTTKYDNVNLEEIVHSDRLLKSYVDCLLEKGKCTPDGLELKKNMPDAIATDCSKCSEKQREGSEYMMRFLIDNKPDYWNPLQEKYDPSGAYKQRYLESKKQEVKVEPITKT

For orientation: pKd means the negative decadic logarithm of the Kd, by convention in mol/L. On to `c1ccc(Nc2cccc3ccccc23)cc1` [1-NPN, N-phenyl-1-naphthylamine, reference compound], for which the negative logarithm of the Kd (pKd) on GdauOBP1 is 4.94; on GdauOBP6, 4.93; at GdauOBP10, 5.18; at GdauOBP15, 4.84; on GdauCSP4, 4.72; at GdauCSP5, 5.27.

As usually defined, the pIC50 is −log10 of the IC50, conventionally taken in molar units. By pKi is commonly meant −log10 of the Ki, conventionally taken in molar units. Regarding `C=CCSCC=C` [Diallyl sulfide], the pIC50 at GdauOBP6 (setting [3]) was 4.26; on GdauOBP10 (setting [4]) it was 4.11; on GdauOBP15 (setting [5]) it was 4.32; on GdauCSP4 (setting [6]), 4.36; on GdauCSP5 (setting [7]), 4.14. For the same compound, the pKi was 4.33 on GdauOBP6 (GdauOBP6); 4.22 on GdauOBP10 (GdauOBP10); 4.37 on GdauOBP15 (GdauOBP15); 4.40 at GdauCSP4 (GdauCSP4); 4.27 on GdauCSP5 (GdauCSP5).

Regarding `CSSC` [Dimethyl disulfide], the negative-log IC50 (pIC50) was 4.19 on GdauOBP1 (setting [8]); 4.53 on GdauOBP6 (setting [3]); 4.21 on GdauOBP10 (setting [4]); 4.58 on GdauOBP15 (setting [5]); 4.64 at GdauCSP4 (setting [6]); 4.44 at GdauCSP5 (setting [7]). In addition, the pKi at GdauOBP1 (GdauOBP1) was 4.26; on GdauOBP6 (GdauOBP6), 4.59; at GdauOBP10 (GdauOBP10), 4.32; at GdauOBP15 (GdauOBP15), 4.64; on GdauCSP4 (GdauCSP4), 4.68; on GdauCSP5 (GdauCSP5), 4.58.

On to `C1CSCSC1` [1,3-dithiane], for which the pIC50 was 4.15 on GdauOBP1; 4.44 on GdauOBP6; 4.23 at GdauOBP10; 4.24 at GdauOBP15; 4.73 at GdauCSP4; 4.30 on GdauCSP5. Moreover, the “EAG response compared to the control” value in the experiment with G. daurica antennae [1] is given as “significantly lower”.

For `CCCCCC=O` [Hexanal], the pIC50 at GdauOBP1 is 4.15; on GdauOBP6, 4.49; at GdauOBP10, 4.28; at GdauOBP15 it was 4.16; on GdauCSP4, 4.81; at GdauCSP5, 4.21. The “EAG response compared to the control” value in the experiment on G. daurica antennae [1] is “significantly lower”.

For `COC(=O)c1ccccc1` [Methyl benzoate], the pIC50 on GdauOBP1 is 4.18; at GdauOBP6, 4.44; at GdauOBP10, 4.13; at GdauOBP15, 4.45; at GdauCSP4 it was 4.88; at GdauCSP5 it was 4.35. Further, the “EAG response compared to the control” value in the experiment on G. daurica antennae [1] is reported as “significantly lower”.

For the compound `CCCC=CC=O` [2-hexenal, 2-Hexenal], the pIC50 at GdauOBP1 was 4.02; at GdauOBP6, 4.47; at GdauOBP10 it was 4.07; at GdauOBP15, 4.38; on GdauCSP4, 4.76; on GdauCSP5, 4.46. Besides, the “EAG response compared to the control” value with G. daurica antennae [2] was “reduced significantly”; in the experiment on G. daurica antennae [1], “significantly lower”.

Consider `CCC/C=C\CO` [(Z)-2-hexen-1-ol, (Z)-2-Hexen-1-ol], for which the pIC50 on GdauOBP1 was 4.06; at GdauOBP6 it was 4.48; on GdauOBP10 it was 4.02; on GdauOBP15, 4.12; on GdauCSP4, 4.30.

As to `Cc1ccc(C)cc1` [p-xylene, p-Xylene], the pIC50 at GdauOBP1 is 4.07; on GdauOBP6, 4.14; at GdauOBP10 it was 4.24; at GdauOBP15, 4.30; on GdauCSP4 it was 4.70; at GdauCSP5, 4.25. In the experiment on G. daurica antennae [1], the “EAG response compared to the control” value is recorded as “significantly lower”.

On to `C=CC(=C)CCC=C(C)C` [Myrcene], for which the pIC50 on GdauOBP1 (setting [8]) is 4.08; at GdauOBP6 (setting [3]), 4.16; on GdauCSP5 (setting [7]), 4.07. In addition, the pKi at GdauOBP1 (GdauOBP1) is 4.15; on GdauOBP6 (GdauOBP6), 4.23; at GdauCSP5 (GdauCSP5), 4.21. Besides, in the experiment on G. daurica antennae [1], the “EAG response compared to the control” value is “significantly lower”.

`C1=CC=CCC=C1` [1,3,5-cycloheptatriene, 1,3,5-Cycloheptatriene]: the negative-log IC50 (pIC50) is 4.20 on GdauOBP1 (setting [8]); 4.09 on GdauOBP6 (setting [3]); 4.22 on GdauOBP10 (setting [4]); 4.29 at GdauOBP15 (setting [5]); 4.63 at GdauCSP4 (setting [6]); 4.34 at GdauCSP5 (setting [7]). Moreover, the negative-log Ki (pKi) on GdauOBP1 (GdauOBP1) is 4.27; on GdauOBP6 (GdauOBP6), 4.16; on GdauOBP10 (GdauOBP10), 4.33; at GdauOBP15 (GdauOBP15), 4.34; on GdauCSP4 (GdauCSP4), 4.67; on GdauCSP5 (GdauCSP5), 4.48. The “EAG response compared to the control” value in the experiment with G. daurica antennae [1] is recorded as “significantly lower”.

For the compound `CSSSC` [Dimethyl trisulfide], the pIC50 on GdauOBP1 (setting [8]) is 4.20; at GdauOBP6 (setting [3]), 4.35; on GdauOBP10 (setting [4]), 4.17; at GdauOBP15 (setting [5]) it was 4.25; at GdauCSP4 (setting [6]) it was 4.78; on GdauCSP5 (setting [7]) it was 4.27. The pKi at GdauOBP1 (GdauOBP1) is 4.27; at GdauOBP6 (GdauOBP6), 4.42; on GdauOBP10 (GdauOBP10) it was 4.28; on GdauOBP15 (GdauOBP15), 4.30; at GdauCSP4 (GdauCSP4), 4.82; on GdauCSP5 (GdauCSP5), 4.40. Moreover, the “EAG response compared to the control” value with G. daurica antennae [1] is recorded as “significantly lower”.

As to `C=CCSSCC=C` [Diallyl disulfide], the pIC50 on GdauOBP1 was 4.01; on GdauOBP6 it was 4.14; on GdauOBP15, 4.37; on GdauCSP4, 4.63; at GdauCSP5, 4.21.

(Values after PMC8221581, “Functional Characterization of Olfactory Proteins Involved in Chemoreception of Galeruca daurica” (Frontiers in Physiology, 2021).)
